{"source": "patent US10004716B2", "about": "“Therapeutic/ preventive agent containing coumarin derivative as active ingredient” (NIPPON ZOKI PHARMACEUTICAL CO., LTD., priority 2014, dated 2018)", "key": {"NF-κB": {"tested_on": "NF-κB", "assay": "Suppressive action to NF-κB activation (luciferase reporter, HEK293T cells, TNF-α)", "assay_type": "cell-based, human", "details": "HEK293T cells with NF-κB reporter; test substance 25 μml/mL 1 hour, then TNF-α 10 ng/mL 5 hours; stimulated TNF-α = 100", "experimental": "A preparation solution containing pGL4.32 [luc2P/NF-κB-RE/Hygrol] (Promega) which is an NF-κB reporter vector, pGL4.74 [hRluc/TK] (Promega) which is a control vector and Lipofectamine LTX (Life Technologies) which is a gene transfer agent was added to human embryo kidney cells (HEK293T cells) sown onto a […] whereupon there were prepared the cells which transiently express a reporter protein.\nAfter 24 hours from the gene transfer, transient expression cells were peeled off by treating with trypsin, sown on a poly-lysine coated white 96-well plate and incubated for one night. The test substance was added to as to make its final concentration 25 μml/mL and, after pre-incubating for 1 hour, TNF-α was added thereto so as to make its final concentration 10 ng/mL followed by incubating for 5 hours more. The cells were dissolved and the activities of a firefly luciferase and a renilla luciferase were measured. Rate of the luminescent intensity by addition of each drug to the luminescent intensity by stimulation with TNF-α were calculated."}, "IL-1β gene expression": {"tested_on": "IL-1β gene expression", "assay": "Suppression of IL-1α-induced gene expression of inflammation-related factors in bovine cartilage pieces (real time PCR): IL-1β", "assay_type": "cell-based", "details": "20 μmol/L test substance 2 hours, then IL-1α 3 ng/mL 8 hours, n = 3", "experimental": "(§1) Each 6 to 8 cartilage pieces (diameter: 4 mm) of bovine metacarpophalangeal joint were placed into each well of a 24-well plate and incubated for one night in 1 mL of a basal medium in a CO2 incubator which was set at 37° C. and 5% by volume of CO2. After that, they were incubated for 2 hours in a basal medium containing 20 μmol/L of a test substance and, after addition of human recombinant IL-1α (3 ng/mL) thereto, they were incubated for 8 hours more. After completion of the incubation, the culture medium was discarded, an RNA stabilizer was added to the cartilage pieces, the mixture was incubated at 4° C. for one night and the cartilage pieces were finely cut using scissors, placed into micro-tubes and stored with freezing until the extraction of RNA therefrom.\n(§2) The cartilage pieces placed in the micro-tubes were pulverized using Tissue Lyser (QIAGEN) (at 25 Hz for 5 minutes; for two times), 1 mL of QIAzol Lysis Reagent (QIAGEN) was added thereto to suspend, 200 μL of chloroform was added thereto followed by mixing and the mixture was centrifuged (1500 rpm at 4° C.) to recover the supernatant liquid. Total RNA was extracted and purified using QIACube (QIAGEN) and RNeasy Micro Kit (QIAGEN). cDNA was prepared from the total RNA using Omniscript RT Kit (QIAGEN) and Oligo(dT)12-18 Primer (Invitrogen).\n(§3) The cDNA synthesized from the total RNA extracted in the above (2) was used to measure the gene expression level of the inflammation-related factors [IL-1β, IL-6, COX-2 and iNOS (inducible nitric oxide synthase)] by a conventional real time PCR method using a fluorescent dye SYBR GREEN I (Roche Diagnostics) by a Light Cycler LC 480 (the same). A calibration curve was prepared by dilution of a PCR product quantified by a DNA quantitation kit (PicoGreen dsDNA Quantitiation Kit (Molecular Probes)) to an extent of 10^2˜10^7 copies/μL. From each of the resulting measured data, copy numbers per 10000 copies of glyceroaldehyde-3-phosphate dehydrogenase (GAPDH) which was an internal standard were calculated."}, "[1]": {"tested_on": "connective tissue growth factor (CTGF) gene expression", "assay": "Evaluation I: TGF-β-induced gene expression of fibrosis-related factors in NHLF cells: CTGF", "assay_type": "cell-based, human", "details": "25 μmol/L test substance 2 hours, then TGF-β 5 ng/mL 24 hours, n = 3", "experimental": "(§4) NHLF cells were sown so as to make their amount 4×10^4 cells/well to each well of a 12-well plate and incubated to an extent of 80% confluent in a medium where fibroblast growth medium 2 supplement mix (FGM-2 SingleQuots, Lonza) was added to a fibroblast basal medium (FBM, Lonza). After that, incubation was conducted for 2 hours in a Dulbecco modified Eagle medium (DMEM) containing 25 μmol/L of a test substance and, after addition of […] growth factor (TGF)-β thereto so as to make its final concentration 5 ng/mL, incubation was carried out for 24 hours more.\n(§5) QIAzol Lysis Reagent (QIAGEN) (1 mL) was added to the above to suspend, 200 μL of chloroform was added thereto followed by mixing and centrifugation (at 4° C. and 1500 rpm) was then conducted whereby the supernatant liquid was recovered. Total RNA was extracted and purified by treating the supernatant liquid with QIACube (QIAGEN) and RNeasy Micro Kit (QIAGEN). cDNA was prepared from the total RNA using Omniscript RT kit (QIAGEN) and Oligo(dT)12-18 Primer (Invitrogen).\n(§6) Gene expression level of the fibrosis-related factors [connective tissue growth factor (CTGF), α-smooth muscle actin (SMA), fibronectin, endothelin and type I collagen (Col 1)] was measured by a conventional real time PCR method using a fluorescent dye SYBR GREEN I (Roche Diagnostics) by Light Cycler LC 480 (the same) using cDNA synthesized from the total RNA extracted in the above (2). A calibration curve was prepared by diluting the PCR product quantified by PicoGreen dsDNA Quantitation kit (Molecular probes) (a DNA quantitation kit) to an extent of 10^2˜10^7 copies/μL. From each of the resulting quantified values, copy numbers per 10000 copies of GAPDH gene being an internal standard were calculated."}, "[2]": {"tested_on": "endothelin gene expression", "assay": "Evaluation I: TGF-β-induced gene expression of fibrosis-related factors in NHLF cells: endothelin", "assay_type": "cell-based, human", "details": "25 μmol/L test substance 2 hours, then TGF-β 5 ng/mL 24 hours, n = 3", "experimental": "as §4, §5, §6"}, "IL-6 gene expression": {"tested_on": "IL-6 gene expression", "assay": "Suppression of IL-1α-induced gene expression of inflammation-related factors in bovine cartilage pieces (real time PCR): IL-6", "assay_type": "cell-based", "details": "20 μmol/L test substance 2 hours, then IL-1α 3 ng/mL 8 hours, n = 3", "experimental": "as §1, §2, §3"}, "[3]": {"tested_on": "α-smooth muscle actin (SMA) gene expression", "assay": "Evaluation I: TGF-β-induced gene expression of fibrosis-related factors in NHLF cells: α-SMA", "assay_type": "cell-based, human", "details": "25 μmol/L test substance 2 hours, then TGF-β 5 ng/mL 24 hours, n = 3", "experimental": "as §4, §5, §6"}, "[4]": {"tested_on": "fibronectin gene expression", "assay": "Evaluation I: TGF-β-induced gene expression of fibrosis-related factors in NHLF cells: fibronectin", "assay_type": "cell-based, human", "details": "25 μmol/L test substance 2 hours, then TGF-β 5 ng/mL 24 hours, n = 3", "experimental": "as §4, §5, §6"}}, "data": [{"smiles": "O=c1oc2c(OS(=O)(=O)c3ccc(C(F)(F)F)cc3)cccc2cc1NS(=O)(=O)c1cccc(Br)c1", "note": "[Compound 58, 3-[(3-Bromophenyl)sulfonylamino]-2-oxochromen-8-yl 4-(trifluoromethyl)benzenesulfonate]", "values": [{"measurement": "Luminescent Intensity to Stimulated TNF-α (%)", "setting": "NF-κB", "value": 14.5, "unit": "%"}, {"measurement": "Copy Numbers per 10000 Copies of GAPDH IL-1β", "setting": "IL-1β gene expression", "value": "157.8 copies per 10000 copies of GAP"}, {"measurement": "Copy Numbers per 10000 Copies of GAPDH CTGF", "setting": "[1]", "value": "5020.5 copies per 10000 copies of GAP"}, {"measurement": "Copy Numbers per 10000 Copies of GAPDH Endothelin", "setting": "[2]", "value": "7.6 copies per 10000 copies of GAP"}, {"measurement": "Copy Numbers per 10000 Copies of GAPDH IL-6", "setting": "IL-6 gene expression", "value": "9346.3 copies per 10000 copies of GAP"}, {"measurement": "Copy Numbers per 10000 Copies of GAPDH α-SMA", "setting": "[3]", "value": "826.9 copies per 10000 copies of GAP"}, {"measurement": "Copy Numbers per 10000 Copies of GAPDH Fibronectin", "setting": "[4]", "value": "18665.2 copies per 10000 copies of GAP"}]}, {"smiles": "O=c1oc2c(OS(=O)(=O)c3cccc(Br)c3)cccc2cc1NS(=O)(=O)c1cccc(C(F)(F)F)c1", "note": "[Compound 60, 2-Oxo-3-[[3-(trifluoromethyl)phenyl]sulfonylamino]-chromen-8-yl 3-bromobenzenesulfonate]", "values": [{"measurement": "Luminescent Intensity to Stimulated TNF-α (%)", "setting": "NF-κB", "value": 15.7, "unit": "%"}, {"measurement": "Copy Numbers per 10000 Copies of GAPDH IL-1β", "setting": "IL-1β gene expression", "value": "170.6 copies per 10000 copies of GAP"}, {"measurement": "Copy Numbers per 10000 Copies of GAPDH CTGF", "setting": "[1]", "value": "13992.0 copies per 10000 copies of GAP"}, {"measurement": "Copy Numbers per 10000 Copies of GAPDH Endothelin", "setting": "[2]", "value": "16.9 copies per 10000 copies of GAP"}, {"measurement": "Copy Numbers per 10000 Copies of GAPDH IL-6", "setting": "IL-6 gene expression", "value": "9277.4 copies per 10000 copies of GAP"}, {"measurement": "Copy Numbers per 10000 Copies of GAPDH α-SMA", "setting": "[3]", "value": "1324.8 copies per 10000 copies of GAP"}, {"measurement": "Copy Numbers per 10000 Copies of GAPDH Fibronectin", "setting": "[4]", "value": "30000.8 copies per 10000 copies of GAP"}]}, {"smiles": "O=c1oc2c(OS(=O)(=O)c3cccc(C(F)(F)F)c3)cccc2cc1NS(=O)(=O)c1ccc(C(F)(F)F)cc1", "note": "[Compound 68, 2-Oxo-3-[[4-(trifluoromethyl)phenyl]sulfonylamino]-chromen-8-yl 3-(trifluoromethyl)benzenesulfonate]", "values": [{"measurement": "Luminescent Intensity to Stimulated TNF-α (%)", "setting": "NF-κB", "value": 16.1, "unit": "%"}, {"measurement": "Copy Numbers per 10000 Copies of GAPDH IL-1β", "setting": "IL-1β gene expression", "value": "175.1 copies per 10000 copies of GAP"}, {"measurement": "Copy Numbers per 10000 Copies of GAPDH CTGF", "setting": "[1]", "value": "10441.5 copies per 10000 copies of GAP"}, {"measurement": "Copy Numbers per 10000 Copies of GAPDH Endothelin", "setting": "[2]", "value": "6.4 copies per 10000 copies of GAP"}, {"measurement": "Copy Numbers per 10000 Copies of GAPDH IL-6", "setting": "IL-6 gene expression", "value": "16195.2 copies per 10000 copies of GAP"}, {"measurement": "Copy Numbers per 10000 Copies of GAPDH α-SMA", "setting": "[3]", "value": "1007.1 copies per 10000 copies of GAP"}, {"measurement": "Copy Numbers per 10000 Copies of GAPDH Fibronectin", "setting": "[4]", "value": "26090.7 copies per 10000 copies of GAP"}]}, {"smiles": "O=c1oc2c(OS(=O)(=O)c3ccc(C(F)(F)F)cc3)cccc2cc1NS(=O)(=O)c1cccc(C(F)(F)F)c1", "note": "[Compound 57, 2-Oxo-3-[[3-(trifluoromethyl)phenyl]sulfonylamino]-chromen-8-yl 4-(trifluoromethyl)benzenesulfonate]", "values": [{"measurement": "Luminescent Intensity to Stimulated TNF-α (%)", "setting": "NF-κB", "value": 7.5, "unit": "%"}, {"measurement": "Copy Numbers per 10000 Copies of GAPDH IL-1β", "setting": "IL-1β gene expression", "value": "144.8 copies per 10000 copies of GAP"}, {"measurement": "Copy Numbers per 10000 Copies of GAPDH CTGF", "setting": "[1]", "value": "8963.4 copies per 10000 copies of GAP"}, {"measurement": "Copy Numbers per 10000 Copies of GAPDH Endothelin", "setting": "[2]", "value": "8.2 copies per 10000 copies of GAP"}, {"measurement": "Copy Numbers per 10000 Copies of GAPDH IL-6", "setting": "IL-6 gene expression", "value": "7749.8 copies per 10000 copies of GAP"}, {"measurement": "Copy Numbers per 10000 Copies of GAPDH α-SMA", "setting": "[3]", "value": "1166.3 copies per 10000 copies of GAP"}, {"measurement": "Copy Numbers per 10000 Copies of GAPDH Fibronectin", "setting": "[4]", "value": "21220.7 copies per 10000 copies of GAP"}]}]}
